Holding throughout (assay): NCI anticancer screen, dose series, 48 h
Experiment [1] deals with COLO 205 colon.
Experiment [2] relates to DLD-1 colon.
Experiment [3] deals with HCT-15 colon.
Experiment [4] has as its system KM12 colon.
Experiment [5] relates to LXFL 529 NSCLC.
The subject of experiment [6] is M19-MEL melanoma.
Experiment [7] has as its system OVCAR-3 ovarian.
The subject of experiment [8] is SNB-78 CNS.
For experiment [9], the system named is UO-31 renal.
Experiment [10] has as its system MDA-MB-435.

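Dose response: 5 concentrations. Exposure: 48 h. Format: 96-well plates. Endpoint: linear interpolation; highest concentration if not reached. GI50: concentration for 50% inhibition of growth. The concentration for full growth arrest is given as TGI.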

As for `COC1=CC(=O)c2c(cc3c(c2O)-c2c(OC)cc4cc5c(c(O)c4c2OC(=O)CC(C)(O)C3)C(=O)CC(C)(O)C5)C1=O` (stereo not drawn), the TGI in experiment [1] is 3.17 µM; in experiment [2] it was 9.01 µM; in experiment [3], 4.36 µM; in [4], 8.98 µM; in experiment [5], 4.6 µM; in experiment [6], 1.52 µM. The values for the TGI in experiment [7], in [8] and in experiment [9] were 2.15 µM, 7.12 µM and 3.71 µM, respectively.
As for `OCCCc1cnco1`, the TGI in experiment [1], in experiment [2], in experiment [3], in experiment [4], in experiment [5] and in experiment [6] was > 100 µM throughout. For the same compound, the TGI in experiment [7], in experiment [8] and in experiment [9] was > 100 µM throughout.
On to `O=C(N/C=C/C=C/Sc1ccccc1)OCc1ccccc1`, for which the TGI in experiment [1] was 31.6 µM; in experiment [2] it was 29 µM; in experiment [3] it was 36.2 µM; in experiment [4], 36.1 µM; in experiment [5], 32.5 µM; in [6], 31.5 µM. For the same compound, the TGI in experiment [7] is 32 µM; in experiment [8] it was > 100 µM; in [9] it was 42 µM.
For the compound `CC(C)(CN1CCCCC1)C(=O)CC(SCCN)c1ccc(Cl)cc1` (stereo not drawn), the TGI stood at 3.24 µM in [1]; 3.35 µM in experiment [2]; 4.53 µM in [3]; 5.23 µM in experiment [4]; 3.33 µM in experiment [5]; 7.39 µM in [6]. The TGI came out at 3.96 µM in [7], 8.9 µM in experiment [8] and 13.3 µM in [9].
As for `N#Cc1c(-c2ccccc2)cc(-c2cccs2)c(C#N)c1N`, the TGI in [2], in experiment [3], in experiment [4], in [5], in [7] and in [8] was > 100 µM each time.
Regarding `CCc1nc2ccccc2c(=O)n1/N=C(\N=Nc1ccc(Cl)cc1)c1ccccc1`, the TGI in experiment [1] is > 100 µM; in [2], > 100 µM; in experiment [3], > 100 µM; in [4], 34.7 µM; in experiment [5], 50.8 µM; in [6], > 100 µM. The TGI in [7] is 57.1 µM; in [8] it was 71.1 µM; in experiment [9] it was 76.8 µM.
With `Fc1ccc(C2SCc3nc4ccccc4n32)cc1F` (stereo not drawn), the TGI in [1] is 90.3 µM; in experiment [2], > 100 µM; in [3] it was > 100 µM; in experiment [4], > 100 µM; in experiment [5], > 100 µM; in [6] it was > 100 µM. In addition, the values for the TGI in experiment [7], in [8] and in [9] were > 100 µM, > 100 µM and 41 µM, respectively.
Turning to `C#CCn1c(=O)c2cccnc2n(CC#C)c1=O`, the TGI in experiment [1], in experiment [2], in experiment [3], in [4], in experiment [5] and in [8] was > 100 µM each time.
Take `COC(=O)c1nc(C(=O)OC)c2c([nH]c3ccccc32)c1C(=O)OC`: the TGI in experiment [1], in experiment [2], in experiment [3], in [4], in [5] and in [7] was > 100 µM throughout. Moreover, the TGI in experiment [8] is > 100 µM; in [9], 75.9 µM.
As for `NC(=S)N/N=C(\CCC(=O)Nc1ccccc1[N+](=O)[O-])CC(=O)c1ccco1`, the TGI in experiment [1], in experiment [2], in experiment [3], in experiment [4], in [5] and in experiment [6] was > 100 µM in each case. Further, the TGI in experiment [7], in [8] and in [9] was > 100 µM each time.
For the compound `CC(=O)SC(SC(C)=O)SC(C)=O`, the TGI is 82.9 µM in experiment [1]; > 100 µM in experiment [2]; > 100 µM in experiment [3]; > 100 µM in [4]; > 100 µM in experiment [5]; > 100 µM in [6]. Besides, the TGI in experiment [7], in experiment [8] and in experiment [9] was > 100 µM each time.
For `CCCCCCCC(CC(=O)NC(CO)C(=O)NC(CO)CC(C)C)OC(=O)CC(CCCCCCC)OC(=O)CC(CCCCCCC)OC1OC(C)C(O)C(OC2OC(C)C(O)C(O)C2O)C1O` (stereo not drawn), the TGI came out at 22.8 µM in experiment [1]; 31.7 µM in experiment [2]; 34.6 µM in experiment [3]; 26.3 µM in experiment [4]; 18.1 µM in experiment [5]; 23.3 µM in experiment [6]. Further, the TGI is 19.5 µM in experiment [10], 26.9 µM in experiment [7], 39.1 µM in [8] and 30.5 µM in [9].
As for `O=C(O)c1ccc(C(=O)O)c(C(=O)O)c1.[NH-]C1CCCCC1[NH-].[Pt+2]`, the GI50 was 3.73 µM in [1]; 5.25 µM in [2]; 2050 nM in [3]; 14.3 µM in experiment [4]; 5.94 µM in experiment [5]; 1410 nM in experiment [6]. Moreover, the GI50 was 3.83 µM in experiment [10], 8.64 µM in experiment [7], 24.6 µM in experiment [8] and 4.22 µM in experiment [9]. For the same compound, the TGI in experiment [1] is 40.7 µM; in [2] it was > 87.4 µM; in experiment [3], 33.7 µM; in [4], 74.6 µM; in [5], > 100 µM; in experiment [6] it was 46 µM. The TGI in [10] is 30.4 µM; in experiment [7], 39.9 µM; in experiment [8] it was 99.9 µM; in experiment [9], 26.5 µM.
As for `NC1=NC2=C(CCCC2)C(c2cccs2)S1` (stereo not drawn), the TGI in experiment [1], in experiment [3], in [4], in [5], in experiment [6] and in experiment [7] was > 100 µM throughout. Moreover, the TGI in [8] is > 100 µM; in experiment [9], 74.3 µM.
Regarding `Cc1ccc(NC(=O)/C(=N\NC(N)=S)C(C#N)c2ccccc2C)cc1C` (stereo not drawn), the TGI in [1], in experiment [2], in experiment [3], in experiment [4], in [5] and in experiment [6] was > 100 µM in each case. Further, the TGI in [7], in experiment [8] and in experiment [9] was > 100 µM each time.
In the case of `C=C(COC(C)=O)CC(/C=C(\C)CC/C=C(\C)CO)OC(C)=O` (stereo not drawn), the TGI in experiment [1], in experiment [2], in experiment [3], in experiment [4], in experiment [5] and in experiment [6] was > 100 µM in each case. In addition, the TGI in experiment [7], in [8] and in experiment [9] was > 100 µM in each case.
In the case of `CCCCN(CCCC)CC(C(=O)Nc1ccc([N+](=O)[O-])cc1[N+](=O)[O-])/C(C)=N\NC(=O)C[N+](C)(C)C` (stereo not drawn), the TGI in experiment [1], in experiment [2], in [3], in experiment [4], in experiment [5] and in experiment [6] was > 100 µM in each case. Also, the TGI in [7], in [8] and in experiment [9] was > 100 µM throughout.
On to `CCc1cccc(CC)c1NC(=O)CC1SC(N)=NC1=O` (stereo not drawn), for which the TGI in experiment [1], in [3], in [4], in experiment [5], in experiment [6] and in [7] was > 100 µM in each case. Further, the TGI in [8] and in experiment [9] was > 100 µM throughout.
`CC1=NC=C(O)c2ccccc2O1`: the TGI in experiment [1], in [2], in [3], in [4], in experiment [5] and in experiment [6] was > 100 µM in each case. Also, the TGI in experiment [7], in experiment [8] and in experiment [9] was > 100 µM throughout.
In the case of `COc1cc(C2C(C(=O)O)=C(COC(C)=O)Oc3cc4c(cc32)OCO4)cc(OC)c1OC(C)=O` (stereo not drawn), the TGI in [1], in experiment [2], in experiment [3], in [6], in experiment [7] and in experiment [8] was > 100 µM throughout. In [9], the TGI is > 100 µM.
With `CC(=O)OCC1OC([Se-])C(OC(C)=O)C(OC(C)=O)C1OC(C)=O.N#CCC[PH+](CCC#N)CCC#N.[Au+]` (stereo not drawn), the GI50 was 17.6 µM in experiment [1]; 7.78 µM in [2]; 3920 nM in experiment [3]; 10.3 µM in experiment [4]; 3.5 µM in experiment [5]; 3110 nM in experiment [6]. Besides, the results for the GI50 in experiment [7], in experiment [8] and in experiment [9] were 7.3 µM, 20.1 µM and 8.41 µM, respectively. The TGI in experiment [1] is > 100 µM; in [2], > 63.6 µM; in experiment [3], 23.4 µM; in [4], > 74.5 µM; in experiment [5] it was 37.3 µM; in experiment [6] it was > 27.9 µM. Further, the TGI in experiment [7] amounted to 49.7 µM; in [8], 79.3 µM; in [9] it was 42.1 µM.
In the case of `O=c1nc(N2CCCC2)nc(N2CCCC2)s1`, the TGI in experiment [2], in [3], in experiment [4], in [5], in experiment [6] and in experiment [8] was > 100 µM each time. Besides, in experiment [9], the TGI was > 100 µM.
In the case of `O=C(CCN1CCC(CCO)CC1)Nc1ccc2c(c1)C(=O)c1ccc(NC(=O)CCN3CCC(CCO)CC3)cc1C2=O`, the TGI in experiment [1] is 64.6 µM; in experiment [2] it was 22.2 µM; in experiment [3] it was > 100 µM; in experiment [4], 10.5 µM; in [5], 19.8 µM; in experiment [6] it was > 100 µM. In addition, the TGI in [7] is 24.7 µM; in [8], 21.6 µM; in [9] it was > 100 µM.
Consider `CC(=O)Oc1ccc(Nn2c3ccccc3c3ccccc32)c(C)c1`, for which the TGI is > 100 µM in experiment [1]; > 100 µM in experiment [2]; 82.4 µM in experiment [3]; > 100 µM in experiment [4]; > 100 µM in experiment [5]; > 100 µM in experiment [6]. Further, the TGI was > 100 µM in experiment [7], 91.2 µM in [8] and > 100 µM in [9].
Turning to `Cn1c2cc([N+](=O)[O-])ccc2c(=O)c2c(O)cc3c(c21)C=CC(C)(C)O3`, the TGI in experiment [1], in experiment [2], in experiment [3], in experiment [4], in experiment [5] and in experiment [8] was > 100 µM in each case. Also, the TGI in experiment [9] came out at 67.6 µM.
For the compound `NC(CO)c1ccc(OCc2ccccc2)cc1` (stereo not drawn), the TGI in [1], in experiment [2], in [3], in experiment [4], in experiment [5] and in experiment [6] was > 100 µM throughout. The TGI in [7], in experiment [8] and in experiment [9] was > 100 µM each time.
Consider `CN(C)c1ccc(/C=c2\sc3nnc(-c4cccnc4)n3c2=O)cc1`, for which the TGI in [1], in experiment [2], in experiment [3], in [4], in [5] and in experiment [6] was > 100 µM in each case. The TGI in experiment [7], in experiment [8] and in [9] was > 100 µM throughout.
As to `C=C1C(=O)c2cc3c(cc2C(c2cc(OC)c(OC)c(OC)c2)[C@@H]1C(=O)O)OCO3` (stereo partly drawn), the TGI in experiment [1], in [2], in experiment [3], in experiment [4], in experiment [5] and in experiment [6] was > 100 µM in each case. For the same compound, the TGI in experiment [7] was 72.8 µM; in experiment [8] it was > 100 µM; in experiment [9] it was > 100 µM.
